For 20 molecules, T/C results are on record in PubChem BioAssay AID248 (DTP/NCI, 2004).

For the experiment, the system named is L1210 leukemia ip in BDF1 mice, survival T/C. The experiment can be described thus: NCI In Vivo Anticancer Drug Screen. Data for tumor model L1210 Leukemia (intraperitoneal) in B6D2F1 (BDF1) mice. The note with it: endpoint: mean survival time, higher = longer survival. The procedure, abridged: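 Read-out is survival time, reported as the treated-group measurement over the vehicle-control measurement.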

[1] abbreviates: dose: 100.0 mg/kg/injection, schedule: Q01DX009 (ip), vehicle: saline.
Setting [2] is: dose: 200.0 mg/kg/injection, schedule: Q01DX009 (ip), vehicle: saline.
Where [3] appears, read: dose: 50.0 mg/kg/injection, schedule: Q01DX009 (ip), vehicle: saline.
Setting [4] is: dose: 100.0 mg/kg/injection, schedule: Q04DX003 (ip), vehicle: saline with Tween-80.
Where [5] appears, read: dose: 200.0 mg/kg/injection, schedule: Q04DX003 (ip), vehicle: saline with Tween-80.
Where [6] appears, read: dose: 400.0 mg/kg/injection, schedule: Q04DX003 (ip), vehicle: saline with Tween-80.
Setting [7] is: dose: 100.0 mg/kg/injection, schedule: Q01DX009 (ip), vehicle: Klucel (hydroxypropylcellulose) (HPC).
[8] abbreviates: dose: 100.0 mg/kg/injection, schedule: Q04DX003 (ip), vehicle: Klucel (hydroxypropylcellulose) (HPC).
[9] abbreviates: dose: 200.0 mg/kg/injection, schedule: Q01DX009 (ip), vehicle: Klucel (hydroxypropylcellulose) (HPC).
[10] abbreviates: dose: 200.0 mg/kg/injection, schedule: Q04DX003 (ip), vehicle: Klucel (hydroxypropylcellulose) (HPC).
The mark [11] stands for this setting: dose: 400.0 mg/kg/injection, schedule: Q04DX003 (ip), vehicle: Klucel (hydroxypropylcellulose) (HPC).
The mark [12] stands for this setting: dose: 100.0 mg/kg/injection, schedule: Q01DX001 (ip), vehicle: carboxymethylcellulose (CMC).
[13] abbreviates: dose: 200.0 mg/kg/injection, schedule: Q01DX001 (ip), vehicle: carboxymethylcellulose (CMC).
Where [14] appears, read: dose: 400.0 mg/kg/injection, schedule: Q01DX001 (ip), vehicle: carboxymethylcellulose (CMC).
[15] abbreviates: dose: 2.5 mg/kg/injection, schedule: Q04DX003 (ip), vehicle: saline.
Setting [16] is: dose: 100.0 mg/kg/injection, schedule: Q01DX001 (ip), vehicle: saline.
Setting [17] is: dose: 200.0 mg/kg/injection, schedule: Q01DX001 (ip), vehicle: saline.
The mark [18] stands for this setting: dose: 400.0 mg/kg/injection, schedule: Q01DX001 (ip), vehicle: saline.

“And” between values parts separate entries of the source, which are not always exact repeats. Identical values can stand only once. Toxic doses and inconclusive results are not listed.

Consider `CCN1C(=O)CC(O)C1=O` (centres undefined), for which the T/C is, setting by setting: under setting [1], 101 % of control; under setting [2], 100 % of control; (dose: 400.0 mg/kg/injection, schedule: Q01DX009 (ip), vehicle: saline) 97 % of control.

As to `O=S(=O)(O)CCO`, the T/C was 99 % of control under setting [3]; 95 % of control under setting [1]; 97 % of control (dose: 100.0 mg/kg/injection, schedule: Q04DX003 (ip), vehicle: saline); 99 % of control under setting [2]; 101 % of control (dose: 200.0 mg/kg/injection, schedule: Q04DX003 (ip), vehicle: saline); 101 % of control (dose: 400.0 mg/kg/injection, schedule: Q04DX003 (ip), vehicle: saline).

In the case of `COc1ccc(C2=CC(O)CC(c3ccccc3)C2c2ccccc2)cc1` (centres undefined), the T/C reads like this: under setting [4], 105 % of control; under setting [5], 103 % of control; under setting [6], 91 % of control.

Take `CCc1ccc(NC(=O)c2c(Br)c(Br)c(Br)c(Br)c2C(=O)O)cc1`: the T/C is 96 % of control (dose: 25.0 mg/kg/injection, schedule: Q01DX009 (ip), vehicle: Klucel (hydroxypropylcellulose) (HPC)); 104 % of control (dose: 50.0 mg/kg/injection, schedule: Q01DX009 (ip), vehicle: Klucel (hydroxypropylcellulose) (HPC)); 101 % of control and 107 % of control under setting [7].

In the case of `Cc1cc(C)c(B2OB(c3c(C)cc(C)cc3C)O2)c(C)c1`, the T/C under setting [7] is 95 % of control; the T/C under setting [8] is 96 % of control; the T/C under setting [9] was 97 % of control; the T/C under setting [10] is 103 % of control; the T/C under setting [11] is 91 % of control.

Regarding `Cc1ccc(S(=O)(=O)NNC(=O)c2cc(C)c(C)cc2NCC(O)C(O)C(O)CO)cc1` (centres undefined), the T/C is 93 % of control under setting [12], 98 % of control under setting [13] and 89 % of control under setting [14].

With `CC(=O)Nc1nc(C)c(CCCOc2ccc([N+](=O)[O-])cc2)c(Cl)n1`, the T/C runs as follows: (dose: 100.0 mg/kg/injection, schedule: Q01DX001 (ip), vehicle: Klucel (hydroxypropylcellulose) (HPC)) 100 % of control; (dose: 200.0 mg/kg/injection, schedule: Q01DX001 (ip), vehicle: Klucel (hydroxypropylcellulose) (HPC)) 97 % of control; (dose: 400.0 mg/kg/injection, schedule: Q01DX001 (ip), vehicle: Klucel (hydroxypropylcellulose) (HPC)) 97 % of control.

Consider `CC[P+](c1ccccc1)(c1ccccc1)c1ccccc1`, for which the T/C runs as follows: (dose: 0.62 mg/kg/injection, schedule: Q01DX009 (ip), vehicle: saline) 100 % of control; (dose: 0.62 mg/kg/injection, schedule: Q04DX003 (ip), vehicle: saline) 100 % of control; (dose: 1.25 mg/kg/injection, schedule: Q01DX009 (ip), vehicle: saline) 100 % of control; (dose: 1.25 mg/kg/injection, schedule: Q04DX003 (ip), vehicle: saline) 97 % of control; (dose: 2.5 mg/kg/injection, schedule: Q01DX009 (ip), vehicle: saline) 100 % of control; under setting [15], 97 % of control.

Turning to `CSc1nc(N)c(N)c(N)n1`, the T/C by setting is: (dose: 100.0 mg/kg/injection, schedule: Q04DX002 (ip), vehicle: Klucel (hydroxypropylcellulose) (HPC)) 103 % of control; (dose: 200.0 mg/kg/injection, schedule: Q04DX002 (ip), vehicle: Klucel (hydroxypropylcellulose) (HPC)) 110 % of control; (dose: 400.0 mg/kg/injection, schedule: Q04DX002 (ip), vehicle: Klucel (hydroxypropylcellulose) (HPC)) 103 % of control.

Consider `Cc1c2ccncc2c(C)c2c1sc1ccccc12`, for which the T/C was 106 % of control (dose: 5.0 mg/kg/injection, schedule: Q01DX009 (ip), vehicle: Klucel (hydroxypropylcellulose) (HPC)); 117 % of control (dose: 10.0 mg/kg/injection, schedule: Q01DX009 (ip), vehicle: Klucel (hydroxypropylcellulose) (HPC)); 124 % of control (dose: 20.0 mg/kg/injection, schedule: Q01DX009 (ip), vehicle: Klucel (hydroxypropylcellulose) (HPC)); 113 % of control (dose: 20.0 mg/kg/injection, schedule: Q01DX009 (ip), vehicle: other); 105 % of control (dose: 31.0 mg/kg/injection, schedule: Q01DX001 (ip), vehicle: other); 111 % of control (dose: 62.0 mg/kg/injection, schedule: Q01DX001 (ip), vehicle: other). Moreover, the T/C reads like this: (dose: 80.0 mg/kg/injection, schedule: Q01DX009 (ip), vehicle: other) 121 % of control; (dose: 125.0 mg/kg/injection, schedule: Q01DX001 (ip), vehicle: other) 121 % of control; (dose: 250.0 mg/kg/injection, schedule: Q01DX001 (oral), vehicle: other) 112 % of control; (dose: 500.0 mg/kg/injection, schedule: Q01DX001 (ip), vehicle: other) 187 % of control; (dose: 500.0 mg/kg/injection, schedule: Q01DX001 (oral), vehicle: other) 112 % of control.

As for `Cc1ccc(NC(=O)/C=C/c2ccccc2)cc1Cl`, the T/C is 95 % of control under setting [7]; 98 % of control under setting [9]; 104 % of control (dose: 400.0 mg/kg/injection, schedule: Q01DX009 (ip), vehicle: Klucel (hydroxypropylcellulose) (HPC)).

With `NC(=O)c1cc(Cl)cc(Cl)c1N1CC[N+](CCCl)=N1`, the T/C (dose: 100.0 mg/kg/injection, schedule: Q01DX001 (ip), vehicle: saline with Tween-80) was 103 % of control.

`CC(C)NC(=O)C1CC2c3cccc4c3c(cn4CN(C)C)CC2N(C)C1` (centres undefined): the T/C is 101 % of control under setting [15]; 101 % of control (dose: 5.0 mg/kg/injection, schedule: Q04DX003 (ip), vehicle: saline); 100 % of control (dose: 10.0 mg/kg/injection, schedule: Q04DX003 (ip), vehicle: saline); 113 % of control (dose: 12.5 mg/kg/injection, schedule: Q04DX002 (ip), vehicle: saline); 101 % of control (dose: 20.0 mg/kg/injection, schedule: Q04DX003 (ip), vehicle: saline); 108 % of control (dose: 25.0 mg/kg/injection, schedule: Q04DX002 (ip), vehicle: saline).

With `C/C=C(\C)C(C#N)CCCC` (centres undefined), the T/C is 95 % of control (dose: 75.0 mg/kg/injection, schedule: Q01DX001 (ip), vehicle: carboxymethylcellulose (CMC)); 106 % of control (dose: 150.0 mg/kg/injection, schedule: Q01DX001 (ip), vehicle: carboxymethylcellulose (CMC)); 95 % of control (dose: 300.0 mg/kg/injection, schedule: Q01DX001 (ip), vehicle: carboxymethylcellulose (CMC)).

As to `c1ccc2cc(SCCCN3CCOCC3)ccc2c1`, the T/C is 97 % of control (dose: 100.0 mg/kg/injection, schedule: Q01DX009 (ip), vehicle: saline sonified); 95 % of control under setting [8]; 116 % of control (dose: 200.0 mg/kg/injection, schedule: Q01DX009 (ip), vehicle: saline sonified); 95 % of control under setting [10]; 90 % of control under setting [11].

For the molecule `CCOc1cc(N)ccc1C`, the T/C by setting is: under setting [7], 97 % of control; under setting [8], 108 % of control; under setting [9], 99 % of control; under setting [10], 97 % of control; under setting [11], 101 % of control.

Regarding `CCN=C1C=C/C(=C(/c2ccc(NCC)c(C)c2)c2cc(O)c(S(=O)(=O)O)cc2S(=O)(=O)O)C=C1C`, the T/C by setting is: under setting [3], 97 % of control; under setting [1], 97 % of control; under setting [2], 104 % of control.

In the case of `CC1([N+](=O)[O-])COP(=O)(O)OC1` (centres undefined) (tested in a mixture with another compound), the T/C is, setting by setting: under setting [12], 109 % of control; under setting [16], 101 % of control [middle of 4 runs]; under setting [13], 109 % of control; under setting [17], 102 % of control [middle of 4 runs]; under setting [14], 107 % of control; under setting [18], 101 % of control and 102 % of control and 103 % of control.

In the case of `O=C(N=C(c1ccccc1)c1ccccc1)c1ccccc1`, the T/C reads like this: under setting [4], 90 % of control; under setting [5], 90 % of control; under setting [6], 88 % of control.

As to `CN1CCC(=O)N1`, the T/C is 100 % of control under setting [16], 100 % of control under setting [17] and 98 % of control under setting [18].
